According to patent US7297704B2, “Cycloalkyfused indole, benzothiophene, benzofuran and idene derivatives” (Wyeth, priority 2005, dated 2007):
Where a name gives a salt, the structure may show the parent alone. Read-outs that look alike come from different tables or passages of the source. Marks after values point to notes of the source that are not given here.

Key:
[1] = target: T1, Human 5-HT1A Receptor (Homo sapiens, UniProt P08908); assay: 8-OH-DPAT binding, human 5-HT1A receptor cell line; details: stably transfected CHO cells, 8-OH-DPAT ligand 1.5 nM; read-out: h5-HT1A Affinity, Ki
T1 construct: expressed in transfected cells; host or cells: CHO cells
T1 sequence (P08908 1-422): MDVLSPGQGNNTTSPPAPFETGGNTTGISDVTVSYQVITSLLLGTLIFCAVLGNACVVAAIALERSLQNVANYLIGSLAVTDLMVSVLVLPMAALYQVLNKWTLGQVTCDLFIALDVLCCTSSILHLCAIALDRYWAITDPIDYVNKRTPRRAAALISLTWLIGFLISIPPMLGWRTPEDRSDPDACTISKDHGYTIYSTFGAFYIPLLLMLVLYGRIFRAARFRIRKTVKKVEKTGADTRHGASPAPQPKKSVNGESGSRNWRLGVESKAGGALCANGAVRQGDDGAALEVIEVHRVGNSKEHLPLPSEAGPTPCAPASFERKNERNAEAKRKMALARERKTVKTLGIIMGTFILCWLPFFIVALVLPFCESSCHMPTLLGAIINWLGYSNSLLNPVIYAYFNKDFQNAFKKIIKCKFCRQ
Outline: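 Membranes from CHO cells stably expressing human 5-HT1A, incubated 30 min at room temperature in 50 mM Tris pH 7.5 with 1.5 nM radioligand (8-OH-DPAT). Non-specific binding defined with […]; filtration on PEI-soaked GF/B filters. Single-point inhibition at […], then Ki for actives.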

[2] = target: T2, serotonin transporter (Rattus norvegicus, UniProt P31652); assay: 3H-paroxetine binding to the serotonin transporter, rat frontal cortical membranes; details: values printed without parentheses, 3H-paroxetine 0.1 nM, read-out: rb-5-HH-T, Ki
T2 construct: frontal cortical membranes prepared from male S.D. rats; from tissue; host or cells: rat frontal cortex membranes (male Sprague-Dawley)
Outline: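 Male Sprague-Dawley rat frontal cortical membranes incubated with 0.1 nM ³H-paroxetine for 60 min at 25 °C, test compound at one to eight concentrations; 10 μM fluoxetine defined specific binding. Filtration separated bound ligand, counted by scintillation. IC50 from nonlinear regression, converted to Ki by Cheng–Prusoff.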

[3] = target: h-5-HT-T (Homo sapiens, UniProt P31645); assay: h-5-HT-T IC50 (Table 1, no method described)
[4] = target: T1, Human 5-HT1A Receptor; assay: cAMP RIA in human 5-HT1A receptor cell line; format: cell-based; details: CHO cells; for EC50: superscript a, read-out: c-AMP, (EC50)^a; for EC50 / Emax / c-AMP, (Emax)^c: forskolin stimulated cAMP; for Emax / c-AMP, (Emax)^c: superscript c; for Emax: read-out: c-AMP, (Emax)^c
Outline: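 Stably transfected CHO cells preincubated in Krebs with 500 uM IBMX, then given forskolin (1 uM final) and test compound (0.1 and 1 uM initial screen) for 10 min at 37° C; cAMP measured by RIA as % inhibition. Antagonist mode: 6 concentrations preincubated 20 min before agonist plus forskolin; IC50 for reversal.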

[5] = target: T3, cloned human 5-HT1A receptors (Homo sapiens, UniProt P08908); assay: 35S-GTPγS binding assay; format: biochemical; details: for IC50: superscript b, reversal of 8-OH-DPAT effect; for Imax (maximum inhibitory effect) / GTPγS, (Imax)^d: superscript d, maximum inhibitory effect; for EC50: superscript a, potency of stimulatory effect; for Emax: superscript c, maximum stimulatory effect
T3 construct: expressed in transfected cells
T3 sequence (P08908 1-422): T1 sequence (P08908 1-422)
Description: The ^35S-GTPγS binding assay similar to that used by Lazareno and Birdsall (Br. J. Pharmacol., 1993, 109: 1120) was used to determine the test compound's ability to affect the binding of ^35S-GTPγS to membranes containing cloned human 5-HT1A receptors. Agonists produce an increase in binding whereas antagonists produce no increase but rather reverse the effects of the standard agonist 8-OH-DPAT. The test compound's maximum stimulatory effect is represented as the Emax, while its potency is defined by the EC50. The test compound's maximum inhibitory effect is represented as the Imax, while its potency is defined by the IC50. […] was used to determine maximum agonist or antagonist response.

Sequence of h-5-HT-T (P31645 whole entry): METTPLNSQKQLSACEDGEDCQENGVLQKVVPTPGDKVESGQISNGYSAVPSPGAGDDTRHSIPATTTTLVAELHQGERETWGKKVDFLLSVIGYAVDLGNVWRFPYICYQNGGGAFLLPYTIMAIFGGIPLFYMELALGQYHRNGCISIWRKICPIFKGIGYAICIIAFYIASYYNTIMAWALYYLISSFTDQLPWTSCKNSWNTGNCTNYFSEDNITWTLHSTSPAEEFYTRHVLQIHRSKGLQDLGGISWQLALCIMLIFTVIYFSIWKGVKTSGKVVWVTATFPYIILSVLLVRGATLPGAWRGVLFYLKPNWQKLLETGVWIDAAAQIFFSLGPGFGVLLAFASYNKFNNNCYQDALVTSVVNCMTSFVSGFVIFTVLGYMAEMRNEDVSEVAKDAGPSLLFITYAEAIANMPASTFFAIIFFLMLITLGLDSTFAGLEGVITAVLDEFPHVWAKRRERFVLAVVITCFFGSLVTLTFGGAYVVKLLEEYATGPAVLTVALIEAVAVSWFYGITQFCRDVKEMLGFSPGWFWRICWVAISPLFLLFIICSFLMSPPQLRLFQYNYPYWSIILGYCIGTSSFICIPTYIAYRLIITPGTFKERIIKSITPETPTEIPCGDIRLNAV
T2 sequence (P31652 whole entry): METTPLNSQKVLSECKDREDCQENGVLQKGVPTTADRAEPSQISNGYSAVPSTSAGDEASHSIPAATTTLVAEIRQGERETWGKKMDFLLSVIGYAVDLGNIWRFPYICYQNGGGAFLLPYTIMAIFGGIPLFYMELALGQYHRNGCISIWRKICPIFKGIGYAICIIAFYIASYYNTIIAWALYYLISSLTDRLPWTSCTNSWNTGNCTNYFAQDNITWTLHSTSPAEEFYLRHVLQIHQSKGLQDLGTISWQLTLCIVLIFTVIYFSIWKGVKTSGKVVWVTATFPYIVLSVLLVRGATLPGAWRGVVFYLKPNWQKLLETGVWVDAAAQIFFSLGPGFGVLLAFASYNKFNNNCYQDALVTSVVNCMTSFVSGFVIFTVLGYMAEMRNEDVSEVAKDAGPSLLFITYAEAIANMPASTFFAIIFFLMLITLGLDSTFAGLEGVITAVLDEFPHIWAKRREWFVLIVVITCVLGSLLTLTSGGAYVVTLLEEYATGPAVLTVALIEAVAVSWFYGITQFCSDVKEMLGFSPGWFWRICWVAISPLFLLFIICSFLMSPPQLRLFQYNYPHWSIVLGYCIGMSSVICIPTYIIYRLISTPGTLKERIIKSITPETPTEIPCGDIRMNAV

| c-AMP, (Emax)^c [4] [%^c] | GTPγS, (Imax)^d [5] [%^d] | Emax ([4]; CHO) [%] | Compound | Ki [1] [µM] | Ki [2] [µM] | IC50 [3] [µM] | EC50 [4] [µM] | Emax [4] [%] | IC50 [5] [µM] | Imax (maximum inhibitory effect) [5] [%] | IC50 ([4]; superscript b, reversal of agonist activity, read-out: c-AMP, (IC50)^b) [µM] | melting point | EC50 [5] [µM] | Emax [5] [%] |
| --- | --- | --- | --- | --- | --- | --- | --- | --- | --- | --- | --- | --- | --- | --- |
| – | – | – | Cc1ccc2c3c(ccc2n1)OC[C@H](CN(CC1CC1)C[C@@H]1CCc2[nH]c4ccc(F)cc4c2C1)O3 [Example 55, (Cyclopropylmethyl){[(3R)-6-fluoro-2,3,4,9-tetrahydro-1H-carbazol-3-yl]methyl}{[(2S)-8-methyl-2,3-dihydro[1,4]dioxino[2,3-f]quinolin-2-yl]methyl}amine dihydrochloride dihydrate] | 0.85 | 0.11 | 0.0085 ± 0.00018 | 0.211 | 67 | 1.13 | 74 | – | – | – | – |
| – | – | – | CCN(CC1CCc2[nH]c3ccc(F)cc3c2C1)C[C@H]1COc2ccc3nc(C)ccc3c2O1 (stereo partly drawn) [Example 50, N-[(6-Fluoro-2,3,4,9-tetrahydro-1H-carbazol-3-yl)methyl]-N-{[(2S)-8-methyl-2,3-dihydro[1,4]dioxino[2,3-f]quinolin-2-yl]methyl}ethanamine dihydrochloride dihydrate] | 0.226 | 0.0269 | 0.00573 ± 0.00033 | – | – | 0.179 | 100 | 0.137 | – | – | – |
| – | – | – | CCCN(C[C@@H]1CCc2[nH]c3ccc(F)cc3c2C1)C[C@H]1COc2ccc3nc(C)ccc3c2O1 [Example 54, N-{[(3R)-6-Fluoro-2,3,4,9-tetrahydro-1H-carbazol-3-yl]methyl}-N-{[(2S)-8-methyl-2,3-dihydro[1,4]dioxino[2,3-f]quinolin-2-yl]methyl}propan-1-amine dihydrochloride dihydrate] | 0.617 | 0.0965 | 0.0166 ± 0.00085 | 0.177 | 48 | 0.581 | 63 | – | – | – | – |
| – | – | – | Cc1ccc2c3c(ccc2n1)OC[C@H](CN(C[C@@H]1CCc2[nH]c4ccc(F)cc4c2C1)C1CCC1)O3 [Example 56, N-{[(3R)-6-Fluoro-2,3,4,9-tetrahydro-1H-carbazol-3-yl]methyl}-N-{[(2S)-8-methyl-2,3-dihydro[1,4]dioxino[2,3-f]quinolin-2-yl]methyl}cyclobutanamine dihydrochloride dihydrate] | 1.73 | 0.127 | 0.0181 ± 0.00039 | 0.154 | 69 | 3.1 | – | – | – | – | – |
| – | – | – | Cc1ccc2c3c(ccc2n1)OC[C@H](CNC1CCc2c([nH]c4ccccc24)C1)O3.Cl.Cl (mixture of isomers) [Example 43, N-{[(2S)-8-methyl-2,3-dihydro[1,4]dioxino[2,3-f]quinolin-2-yl]methyl}-2,3,4,9-tetrahydro-1H-carbazol-2-amine dihydrochloride] | 0.432 | 0.0451 | 0.0193 ± 0.00251 | 0.233 | 61 | 0.197 | 98.5 | – | 117 to 118 °C (dec.) | – | – |
| – | – | – | Cc1ccc2c3c(ccc2n1)OC[C@H](CNCC[C@@H]1CCc2[nH]c4ccc(F)cc4c2C1)O3 (single isomer, unassigned) [Example 41, dihydrochloride] | 0.242 | 0.00945 | 0.00058 ± 0.00014 | 0.00413 | 94 | – | – | – | – | 0.0248 | 94 |
| 62 | 65 | – | Cc1ccc2c3c(ccc2n1)OC[C@H](CNCC1CCc2sc4ccc(F)cc4c2C1)O3 (single isomer, unassigned) [31 diastereomer 2] | 0.00367 | 0.0515 | 0.547 | – | – | 0.29 | – | – | – | – | – |
| – | 95 | 62 | Cc1ccc2c3c(ccc2n1)OC[C@H](CNCC1CCc2sc4ccc(F)cc4c2C1)O3 (single isomer, unassigned) [31 diastereomer 1] | 0.00114 | 0.0099 | 0.337 | – | – | 0.155 | – | – | – | – | – |
| 75 | 80 | – | Cc1ccc2c3c(ccc2n1)OC[C@H](CNCC1CCc2c(sc4cc(F)ccc24)C1)O3 (single isomer, unassigned) [39 diastereomer 2] | 0.00216 | 0.184 | 1.44 | – | – | 0.117 | – | – | – | – | – |
| – | – | – | Cc1ccc2c3c(ccc2n1)OC[C@H](CN[C@H]1CCc2c([nH]c4ccccc24)C1)O3 (single isomer, unassigned) [Example 45, dihydrochloride] | 0.365 | 0.0343 | 0.03895 ± 0.00018 | 0.157 | 59 | 0.461 | – | – | – | – | – |
| – | – | – | Cc1ccc2c3c(ccc2n1)OC[C@H](CNCC[C@H]1CCc2[nH]c4ccc(F)cc4c2C1)O3 (single isomer, unassigned) [Example 42, dihydrochloride] | 0.751 | 0.058 | 0.0028 ± 0.00012 | 0.0364 | 87 | 0.351 | 71 | – | – | 0.063 | 39 |
| – | – | – | Cc1ccc2c3c(ccc2n1)OC[C@H](CN(CC1CC1)CC1CCc2[nH]c4ccc(F)cc4c2C1)O3 (stereo partly drawn) [Example 52, (Cyclopropylmethyl)[(6-fluoro-2,3,4,9-tetrahydro-1H-carbazol-3-yl)methyl]{[(2S)-8-methyl-2,3-dihydro[1,4]dioxino[2,3-f]quinolin-2-yl]methyl}amine dihydrochloride dihydrate] | 0.936 | 0.67 | 0.0195 ± 0.00028 | 0.312 | 70 | 1.58 | 100 | – | – | – | – |
